Reference: PubChem BioAssay (NCI)
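Assay format: 96-well plates, 48-hour exposure. The concentration for full growth arrest is given as TGI.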

Tests used:
Test in all cases: inhibition of tumour cell growth, NCI panel, 48 h
OVCAR-3 ovarian = test system: OVCAR-3 ovarian
HT29 colon = test system: HT29 colon
SNB-19 CNS = test system: SNB-19 CNS
HOP-18 NSCLC = test system: HOP-18 NSCLC
DMS 114 small cell lung = test system: DMS 114 small cell lung
HCT-116 colon = test system: HCT-116 colon
CAKI-1 renal = test system: CAKI-1 renal
KM12 colon = test system: KM12 colon
SW-620 colon = test system: SW-620 colon
SNB-75 CNS = test system: SNB-75 CNS
EKVX NSCLC = test system: EKVX NSCLC
RPMI-8226 leukemia = test system: RPMI-8226 leukemia
SF-295 CNS = test system: SF-295 CNS
K-562 leukemia = test system: K-562 leukemia
U251 CNS = test system: U251 CNS
HOP-92 NSCLC = test system: HOP-92 NSCLC
HCC-2998 colon = test system: HCC-2998 colon
SR leukemia = test system: SR leukemia
CCRF-CEM leukemia = test system: CCRF-CEM leukemia
OVCAR-5 ovarian = test system: OVCAR-5 ovarian
OVCAR-8 ovarian = test system: OVCAR-8 ovarian
RXF 393 renal = test system: RXF 393 renal
SN12C renal = test system: SN12C renal
UACC-62 melanoma = test system: UACC-62 melanoma
NCI-H23 lung = test system: NCI-H23 lung
NCI-H226 lung = test system: NCI-H226 lung
COLO 205 colon = test system: COLO 205 colon
786-0 renal = test system: 786-0 renal
SK-MEL-5 melanoma = test system: SK-MEL-5 melanoma
SF-268 CNS = test system: SF-268 CNS
OVCAR-4 ovarian = test system: OVCAR-4 ovarian
UACC-257 melanoma = test system: UACC-257 melanoma
ACHN renal = test system: ACHN renal
LXFL 529 NSCLC = test system: LXFL 529 NSCLC
A549 NSCLC = test system: A549 NSCLC
SNB-78 CNS = test system: SNB-78 CNS
NCI-H460 lung = test system: NCI-H460 lung
RXF-631 renal = test system: RXF-631 renal
HL-60(TB) leukemia = test system: HL-60(TB) leukemia
SK-OV-3 ovarian = test system: SK-OV-3 ovarian
M19-MEL melanoma = test system: M19-MEL melanoma
HOP-62 NSCLC = test system: HOP-62 NSCLC
XF 498 CNS = test system: XF 498 CNS
LOX IMVI melanoma = test system: LOX IMVI melanoma
SK-MEL-28 melanoma = test system: SK-MEL-28 melanoma
IGROV1 ovarian = test system: IGROV1 ovarian
SK-MEL-2 melanoma = test system: SK-MEL-2 melanoma
M14 melanoma = test system: M14 melanoma
UO-31 renal = test system: UO-31 renal
SF-539 CNS = test system: SF-539 CNS
HCT-15 colon = test system: HCT-15 colon
KM20L2 colon = test system: KM20L2 colon
DMS 273 small cell lung = test system: DMS 273 small cell lung
TK-10 renal = test system: TK-10 renal
MOLT-4 leukemia = test system: MOLT-4 leukemia
MALME-3M melanoma = test system: MALME-3M melanoma
DLD-1 colon = test system: DLD-1 colon
NCI-H522 lung = test system: NCI-H522 lung
A498 renal = test system: A498 renal

Measured: TGI

C/C(=C\CNc1ncnc2c1ncn2C1CCCCO1)COP(=O)(O)O (configuration not stated)
not listed: A498 renal
> 100 µM: all other assays above

COC(=O)C1=C(C)N(NC(N)=O)C2(N)N(NC(N)=O)C(C)=C(C(=O)OC)C12C#N (configuration not stated)
not listed: SNB-75 CNS | SR leukemia | RXF 393 renal | SK-MEL-5 melanoma | LXFL 529 NSCLC
> 100 µM: all other assays above
